In patent US6750058B1, “Transfecting peptide vector, composition containing same and applications” (Commissariat a l'Energie Atomique, priority 1997, dated 2004):

Experiments:
[1] = tested on: Human erythrocytes; test: Haemolytic test; format: cell-based; conditions: 6 μg of peptide I, 10^6 erythrocytes, 37° C.
Procedure: Human erythrocytes are washed 3 times with PBS buffer. 10^6 erythrocytes are incubated with 6 μg of peptide I for various periods of time at 37° C. After centrifugation at 10,000 g for 5 min, the optical density of the supernatant is measured at 540 nm.

[2] = tested on: HeLa cells; test: Transfection of HeLa cells with luciferase plasmid pGL3, light emission in cell lysates; format: cell-based; conditions: for RLU (luciferase light emission): DNA 1.5 μg; for transfection (in words): summary of Table II
Procedure: The HeLa cells are cultured at 37° C. in an EMEM medium supplemented with 10% foetal calf serum under an atmosphere containing 5% CO2.
1.5 to 12 μg of peptide I in 50 μl of dilution buffer (20 mM Tris, pH 7.4, 150 mM NaCl) are incubated with 1.5 μg of plasmid pGL3 in 250 μl of EMEM medium for 15 to 30 min at room temperature.
The mixture of DOTAP or of DOSPER with 1.5 μg of plasmid pGL3 is prepared according to the manufacturer's instructions (Boehringer). For the studies of the effect of the peptide on transfection in the presence of liposomes, portions of peptides are mixed with DOTAP or DOSPER in the dilution buffer defined above for 15 to 30 min at room temperature, and then 1.5 μg of plasmid pGL3 are added and incubated for 15 min at room temperature.
The transfections are carried out in plates comprising 24 wells (Beckton Dickinson) with 1.5×10^5 cells/well (confluence of about 50%) for 1 h at 37° C. After 24 h, the light emission is measured in the cell lysates with the Promega Luciferase Assay System test.

| Compound | RLU (luciferase light emission) ([2]; Table II, peptide 9 μg) | RLU (luciferase light emission) ([2]; Table II, peptide 12 μg) | RLU (luciferase light emission) ([2]; Table II, peptide 3-12 μg) | transfection (in words) [2] | also measured |
| --- | --- | --- | --- | --- | --- |
| CC(C)C[C@H](NC(=O)[C@H](CCCNC(=N)N)NC(=O)[C@H](C)NC(=O)[C@H](CCCNC(=N)N)NC(=O)[C@H](CCCCN)NC(=O)[C@H](C)N)C(=O)N[C@@H](CO)C(=O)N[C@H](C(=O)N[C@@H](CO)C(=O)N[C@@H](Cc1ccccc1)C(=O)N[C@@H](CC(N)=O)C(=O)N1CCC[C@H]1C(=O)N[C@H](C(=O)N[C@@H](Cc1ccc(O)cc1)C(=O)N1CCC[C@H]1C(=O)N[C@@H](Cc1ccc(O)cc1)C(=O)N[C@@H](CCC(=O)O)C(=O)N[C@@H](CC(=O)O)C(=O)N[C@@H](CCC(=O)O)C(=O)N[C@@H](CO)C(=O)N[C@@H](CCCCN)C(=O)N[C@@H](CCCCN)C(=O)N[C@@H](CCCCN)C(=O)N[C@@H](CCCCN)C(=O)N[C@@H](CCCCN)C(=O)N[C@@H](CCCCN)C(=O)N[C@@H](CCCCN)C(=O)N[C@@H](CCCCN)C(=O)N[C@@H](CCCCN)C(=O)N[C@@H](CCCCN)C(=O)N[C@@H](CCCCN)C(=O)N[C@@H](CCCCN)C(=O)N[C@@H](CCCCN)C(=O)N[C@@H](CCCCN)C(=O)N[C@@H](CCCCN)C(=O)N[C@@H](CCCCN)C(=O)N[C@@H](CCCCN)C(=O)N[C@@H](CCCCN)C(=O)N[C@@H](CCCCN)C(=O)N[C@@H](CCCCN)C(=O)O)C(C)C)[C@@H](C)O [Peptide I, AKRARLSTSFNPVYPYEDES - K20] | – | – | – | – | haemolytic test result [1]: negative results |
| A K R A R L S T S E D E S-K10 (AKRARLSTSEDESKKKKKKKKKK) [Peptide IE] | 110 RLU/10 s/10^5 cells × 10^3 | 330 RLU/10 s/10^5 cells × 10^3 | – | – | RLU (luciferase light emission) ([2]; Table II, peptide 3 μg): 1 RLU/10 s/10^5 cells × 10^3; RLU (luciferase light emission) ([2]; Table II, peptide 6 μg): 10 RLU/10 s/10^5 cells × 10^3; times less efficient than peptide IC ([2]; transfection efficiency, Table II): approximately 30 times |
| AKRARLSTSFNPVYPYEDES - K10 [Peptide IC] | 2870 RLU/10 s/10^5 cells × 10^3 | 1330 RLU/10 s/10^5 cells × 10^3 | – | – | RLU (luciferase light emission) ([2]; Table II, peptide 3.6 μg): 1 RLU/10 s/10^5 cells × 10^3; effect of reduced number of lysines in the polylysine polymer on transfection efficiency ([2]; can be compensated for by increasing the quantity of peptide): modest negative effect |
| AKRARLSTSFNPVYPYEDES [Peptide IA] | – | – | 1 RLU/10 s/10^5 cells × 10^3 | no transfection | – |
| L S T S F N P V Y P Y E D E S-K20 [Peptide ID] | – | – | 1 RLU/10 s/10^5 cells × 10^3 | no transfection | attaching and condensing the DNA and entering into the cell [2]: still capable of attaching and condensing the DNA and of entering into the cell; transport of the DNA into the nucleus [2]: incapable of transporting this DNA into the nucleus |
